Assay [1] addresses T1, recombinant human dopamine D2L receptors (Homo sapiens, UniProt P14416).
T1 construct: expressed in transfected cells; host or cells: HEK-293 (HEK-D2L), membrane homogenates
Put plainly: Dopamine Binding Assay. Conditions: HEK-D2L cell membranes, 150 pM [3H]-spiperone, Cheng and Prusoff. As for the experimental part:
HEK-293 cells that stably express recombinant human dopamine D2L receptors (HEK-D2L cells) were grown at 37° C. in 5% CO2 as a monolayer in medium consisting of EMEM supplemented with 10% fetal bovine serum and G418 sulfate (500 μg/ml). To prepare membranes for radioligand binding experiments, cells were rinsed twice with phosphate-buffered saline (138 mM NaCl, 4.1 mM KCl, 5.1 mM Na2PO4, 1.5 mM KH2PO2 11.1 mM glucose, pH 7.4), and incubated for 5-10 min. at 4° C. in hypotonic lysis buffer consisting of 10 mM Tris (pH 7.4) and 5 mM EDTA. Cells were transferred from plates to polypropylene tubes (16×100 mm), homogenized and centrifuged at 32,000×g for 20 min. Following centrifugation, pellets were resuspended by homogenization in buffer consisting of 50 mM Tris (pH 7.7 at 25° C.) and 1 mM EDTA. Homogenates were stored at −80° C. until needed. On the day of an experiment, homogenates were thawed then centrifuged at 32,000×g for 20 min. Following centrifugation, supernatants were discarded and pellets were resuspended in assay buffer consisting of 50 mM Tris (pH 7.4 at 25° C.), 1 mM EDTA and 6 mM MgCl2. Membrane homogenates (˜5 μg) were incubated with 150 pM [^3H]-spiperone (Amersham Life Science) and increasing concentrations of test compounds for 1.5 hr at 22° C. in a total volume of 400 μl. Reactions were stopped by addition of ice-cold assay buffer and filtration over glass fiber filters (Whatman GFB, pre-soaked in 0.05% polyethylenimine) using a microtitre format Brandel cell harvester. Filters were washed with 3 ml of ice-cold assay buffer. Non-specific binding was defined with 2 μM (+)butaclamol. Ki values were calculated using the method of Cheng and Prusoff (1973). Protein concentrations were determined by the method of Bradford (1976) with BSA as a standard.

Assay [2] addresses T2, human serotonin transporters (Homo sapiens, UniProt P31645).
T2 construct: expressed in transfected cells; host or cells: HEK-293 (HEK-hSERT), membrane homogenates
The experiment in a line: Serotonin Transporter Binding Assay. Conditions: HEK-hSERT cell membranes, 1 nM [3H]-citalopram, Cheng and Prusoff; for pKi: read-out: SERT Ki; for Ki: SERT Ki (nM). As for the experimental part: HEK-293 cells that stably express human serotonin transporters (HEK-hSERT cells) were grown at 37° C. in 5% CO2 as a monolayer in medium consisting of EMEM supplemented with 10% fetal bovine serum and G418 sulfate (500 μg/ml). To prepare membranes for radioligand binding experiments, cells were rinsed twice with phosphate-buffered saline (138 mM NaCl, 4.1 mM KCl, 5.1 mM Na2PO4, 1.5 mM […], 11.1 mM glucose, pH 7.4). Cells were transferred from plates to polypropylene tubes (16×100 mm), centrifuged at 1,200×g for 5 min and were frozen at −80° C. until assay. Following centrifugation, pellets were resuspended by homogenization in buffer consisting of 50 mM Tris (pH 7.7 at 25° C.), 120 mM NaCl and 5 mM KCl and then centrifuged at 32,000×g for 10 min. Following centrifugation, supernatants were discarded and pellets were resuspended in buffer consisting of 50 mM Tris (pH 7.4 at 25° C.), 150 mM NaCl and 5 mM KCl. Membrane homogenates (200 μl/plate) were incubated with 1 nM [^3H]-citalopram (specific activity=85 Ci/mmol) and increasing concentrations of test compounds for 1 hr at 25° C. in a total volume of 250 μl. The assay buffer consisted of 50 mM Tris (pH 7.4 at 25° C.), 120 mM NaCl and 5 mM KCl (pH 7.4 with conc. HCl). Plates were incubated for 1 hr at 25° C., then filtered through 0.5% PEI treated Whatman GF/B filters using a Brandel cell harvester. Filters were washed three times with 3 ml of ice-cold tris wash buffer. Non-specific binding was defined with 10 μM fluoxetine. Amount of radioligand bound in the presence and absence of competitor was analyzed by plotting (−)log drug concentration versus the amount of radioligand specifically bound. The midpoint of the displacement curve (IC50, nM), signifies the potency. Ki values were calculated using the method of Cheng and Prusoff (1973).

pKi: −log10 of the molar value. Where a name gives a salt, the structure may show the parent alone. Read-outs that look alike come from different tables or passages of the source. Bounds are passed on as bounds.

The pKi is the negative decadic logarithm of the Ki, by convention in mol/L. For orientation: Ki means the equilibrium dissociation constant of an inhibitor or competing ligand from its target.

T2 sequence (P31645 whole entry): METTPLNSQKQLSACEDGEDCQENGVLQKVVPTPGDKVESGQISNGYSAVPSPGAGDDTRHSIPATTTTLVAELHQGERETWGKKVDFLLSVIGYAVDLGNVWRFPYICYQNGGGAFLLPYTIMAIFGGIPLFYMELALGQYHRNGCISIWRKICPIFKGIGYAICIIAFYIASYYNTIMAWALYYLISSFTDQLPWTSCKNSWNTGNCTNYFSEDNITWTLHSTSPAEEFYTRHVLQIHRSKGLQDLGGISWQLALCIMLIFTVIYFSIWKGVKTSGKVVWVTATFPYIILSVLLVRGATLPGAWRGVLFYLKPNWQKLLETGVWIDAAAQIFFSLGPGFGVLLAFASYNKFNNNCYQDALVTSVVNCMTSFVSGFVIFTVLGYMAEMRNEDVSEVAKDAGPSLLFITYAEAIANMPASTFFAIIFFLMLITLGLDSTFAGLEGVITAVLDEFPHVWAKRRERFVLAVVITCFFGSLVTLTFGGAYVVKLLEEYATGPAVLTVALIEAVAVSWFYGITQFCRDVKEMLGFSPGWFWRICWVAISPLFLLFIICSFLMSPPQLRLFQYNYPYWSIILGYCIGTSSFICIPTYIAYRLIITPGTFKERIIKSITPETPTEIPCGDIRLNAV
T1 sequence (P14416 whole entry): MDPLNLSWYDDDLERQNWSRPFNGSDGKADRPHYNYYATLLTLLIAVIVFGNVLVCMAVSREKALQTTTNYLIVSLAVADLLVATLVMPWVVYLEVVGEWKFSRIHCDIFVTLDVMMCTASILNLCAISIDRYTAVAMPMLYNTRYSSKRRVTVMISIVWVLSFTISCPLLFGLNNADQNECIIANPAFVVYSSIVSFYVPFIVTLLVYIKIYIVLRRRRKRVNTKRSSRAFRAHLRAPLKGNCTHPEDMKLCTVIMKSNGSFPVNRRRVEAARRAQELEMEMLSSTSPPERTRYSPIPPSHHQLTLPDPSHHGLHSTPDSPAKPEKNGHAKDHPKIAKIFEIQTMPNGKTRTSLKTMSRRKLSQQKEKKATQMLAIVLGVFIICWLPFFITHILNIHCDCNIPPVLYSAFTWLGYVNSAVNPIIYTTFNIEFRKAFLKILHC

In the case of `N#Cc1ccc2[nH]cc([C@@H]3C[C@H]3CNCCc3cccnc3)c2c1` (relative stereo) [Example 20, trans-2-[5-Cyanoindol-3-yl]-1-[N-2-(3-pyridyl)ethylaminomethyl]-cyclopropane], the negative logarithm of the Ki (pKi) was below 6.00 in assay [1] and 8.00 to 9.00 in assay [2].

In the case of `N#Cc1ccc2[nH]cc(C3CC3CNCC3CCCCC3)c2c1` (stereo not drawn) [Example 30, trans-2-[5-Cyanoindol-3-yl]-1-[N-cyclohexylmethylaminomethyl]-cyclopropane], the pKi in assay [1] is 7.00 to 8.00; in assay [2], 8.00 to 9.00.

As for `Fc1ccc2[nH]cc([C@@H]3C[C@H]3CNCCOc3ccccc3)c2c1` (relative stereo) [Example 83], the negative logarithm of the Ki (pKi) in assay [1] and in assay [2] was 8.00 to 9.00 in each case.

For `Fc1ccc2[nH]cc(C3CC3CN3CCN(Cc4ccccc4)CC3)c2c1` (stereo not drawn) [Example 75, trans-1-[4-Benzyl-piperazin-1-yl-methyl]-2-[5-fluoroindol-3-yl]-cyclopropane], the negative-log Ki (pKi) in assay [1] and in assay [2] was 7.00 to 8.00 throughout.

On to `Fc1ccc2[nH]cc(C3CC3CNCc3ccccc3F)c2c1` (stereo not drawn) [Example 53, trans-1-[N-(2-Fluorobenzyl)aminomethyl]2-[5-fluoroindol-3-yl]-cyclopropane], for which the values for the negative-log Ki (pKi) in assay [1] and in assay [2] were 6.00 to 7.00 and 7.00 to 8.00, respectively.

As for `CC(C1CC1c1c[nH]c2ccc(C#N)cc12)N1CCCC1` (stereo not drawn) [Example 124, trans-3-[2-(1-Pyrrolidin-1-yl-ethyl)-cyclopropyl]-1H-indole-5-carbonitrile], the pKi in assay [1] was below 6.00. This compound also registered an inhibition constant Ki in assay [2] of 1 to 10 nM.

Take `Fc1ccc2[nH]cc([C@@H]3C[C@H]3CN3CCc4ccccc4C3)c2c1` (relative stereo) [Example 76, trans-1-[1,2,3,4-tetrahydro-1H-isoquinolin-2-yl-methyl]-2-[5-fluoroindol-3-yl]-cyclopropane]: the pKi in assay [1] and in assay [2] was 7.00 to 8.00 each time.

In the case of `N#Cc1ccc2[nH]cc(C3CC3CN3CCC(Cc4ccccc4)CC3)c2c1` (stereo not drawn) [Example 34, trans-1-(4-Benzyl-piperidin-1-ylmethyl)-2-[5-cyanoindol-3-yl]-cyclopropane], the pKi in assay [1] and in assay [2] was 8.00 to 9.00 in each case.

For `N#Cc1ccc2[nH]cc(C3CC3CN3CCOCC3)c2c1` (stereo not drawn) [Example 137], the pKi in assay [1] was below 6.00. The compound also gave a Ki in assay [2] of 10 to 100 nM.

On to `N#Cc1ccc2[nH]cc(C3CC3CNCc3ccc(F)cc3)c2c1` (stereo not drawn) [Example 13, trans-2-[5-Cyanoindol-3-yl]-1-[N-(4-fluorobenzyl)aminomethyl]-cyclopropane], for which the pKi was 6.00 to 7.00 in assay [1] and 8.00 to 9.00 in assay [2].

As to `N#Cc1ccc2[nH]cc(C3CC3CNCc3cccc(F)c3)c2c1` (stereo not drawn) [Example 12, trans-2-[5-Cyanoindol-3-yl]-1-[N-(3-fluorobenzyl)aminomethyl]-cyclopropane], the pKi in assay [1] was 6.00 to 7.00; in assay [2] it was 8.00 to 9.00.

Take `N#Cc1ccc2[nH]cc([C@@H]3C[C@H]3CCCN3CCCC3)c2c1` (relative stereo) [Example 179, Trans-2-[5-cyanoindol-3-yl]-1-(3-(1-pyrrolidino)propyl)cyclopropane]: the figures for the pKi in assay [1] and in assay [2] were 6.00 to 7.00 and 7.00 to 8.00, respectively.

Take `Fc1ccc2[nH]cc(C3CC3CNCC3CC3)c2c1` (stereo not drawn) [Example 69, trans-1-[N-Cyclopropylmethylaminomethyl]-2-[5-fluoroindol-3-yl]-cyclopropane]: the negative-log Ki (pKi) in assay [1] is 6.00 to 7.00; in assay [2] it was 7.00 to 8.00.

In the case of `COc1cccc(CNCC2CC2c2c[nH]c3ccc(F)cc23)c1` (stereo not drawn) [Example 51, trans-2-[5-Fluoroindol-3-yl]-1-[N-(3-methoxybenzyl)aminomethyl]-cyclopropane], the pKi in assay [1] is 6.00 to 7.00; in assay [2], 8.00 to 9.00.

On to `CNCC1CC1c1c[nH]c2ccc(C#N)cc12` (racemic) [Example 119, trans-2-[5-Cyanoindol-3-yl]-1-(N-methylaminomethyl)cyclopropane], for which the negative logarithm of the Ki (pKi) in assay [1] was 6.00 to 7.00; in assay [2], 8.00 to 9.00.

Consider `COc1ccccc1CNC[C@@H]1C[C@H]1c1c[nH]c2ccc(C#N)cc12` (relative stereo) [Example 8, trans-2-[5-Cyanoindol-3-yl]-1-[N-(2-methoxybenzyl)aminomethyl]-cyclopropane], for which the pKi in assay [1] is 6.00 to 7.00; in assay [2] it was 8.00 to 9.00.

Regarding `N#Cc1ccc2[nH]cc([C@@H]3C[C@H]3CNCCc3c[nH]c4ccccc34)c2c1` (relative stereo) [Example 27, trans-2-[5-Cyanoindol-3-yl]-1-[N-2-(3-indolyl)ethylaminomethyl]-cyclopropane], the pKi in assay [1] is 7.00 to 8.00; in assay [2] it was 8.00 to 9.00.

With `Fc1ccc2[nH]cc(C3CC3CNC3CCCCC3)c2c1` (stereo not drawn) [Example 70, trans-1-[N-Cyclohexylaminomethyl]-2-[5-fluoroindol-3-yl]-cyclopropane], the values for the pKi in assay [1] and in assay [2] were 6.00 to 7.00 and 7.00 to 8.00, respectively.

On to `CCCN(CCC)CC1CC1c1c[nH]c2ccc(F)cc12` (stereo not drawn) [Example 77, trans-1-[N,N-Dipropylaminomethyl]-2-[5-fluoroindol-3-yl]-cyclopropane], for which the pKi is 6.00 to 7.00 in assay [1] and 7.00 to 8.00 in assay [2].

As to `CN(C)C[C@@H]1C[C@H]1c1c[nH]c2ccc(C#N)cc12` [Example 127a, (1R,2R)-trans-2-[5-Cyanoindol-3-yl]-1-(N,N-dimethylaminomethyl)cyclopropane maleate salt], the values for the negative-log Ki (pKi) in assay [1] and in assay [2] were below 6.00 and 7.00 to 8.00, respectively.

As to `CNC[C@H]1C[C@@H]1c1c[nH]c2cc(C(F)(F)F)ccc12` (racemic) [Example 155, Methyl-[2-(6-trifluoromethyl-1H-indol-3-yl)-cyclopropylmethyl]-amine], the pKi in assay [1] is below 6.00. For the same compound, in assay [2], the Ki lay within 10 to 100 nM.

As to `N#Cc1ccc2[nH]cc(C3CC3CNCCc3cccs3)c2c1` (stereo not drawn) [Example 26, trans-2-[5-Cyanoindol-3-yl]-1-[N-2-(2-thiopheneyl)ethylaminomethyl]-cyclopropane], the results for the pKi in assay [1] and in assay [2] were 7.00 to 8.00 and 8.00 to 9.00, respectively.

For the compound `Fc1ccc2[nH]cc(C3CC3CNC34C[C@H]5C[C@@H](C3)C[C@@H](C4)C5)c2c1` (stereo partly drawn) [Example 139], the negative-log Ki (pKi) in assay [1] and in assay [2] was 7.00 to 8.00 throughout.

As to `CN(C)C[C@@H]1C[C@H]1c1c[nH]c2ccc(F)cc12` [Example 128a, (1R,2R)-trans-1-(N,N-dimethylaminomethyl)-2-[5-fluoroindol-3-yl]-cyclopropane maleate salt], the pKi in assay [1] is below 6.00; in assay [2], 7.00 to 8.00.

For the compound `COc1ccc(CCNC[C@@H]2C[C@H]2c2c[nH]c3ccc(F)cc23)cc1` (relative stereo) [Example 82], the pKi in assay [1] and in assay [2] was 7.00 to 8.00 throughout.

`N#Cc1ccc2[nH]cc(C3CC3CNCC3CC3)c2c1` (stereo not drawn) [Example 28, trans-2-[5-Cyanoindol-3-yl]-1-[N-cyclopropylmethylaminomethyl]-cyclopropane]: the negative logarithm of the Ki (pKi) in assay [1] was below 6.00. The same compound showed an inhibition constant (Ki) in assay [2] of 10 to 100 nM.

In the case of `N#Cc1ccc2[nH]cc([C@@H]3C[C@H]3CNCCc3cccs3)c2c1` (relative stereo) [Example 25], the pKi in assay [1] was 6.00 to 7.00; in assay [2] it was 8.00 to 9.00.

Source of the values: patent US6822100B2 (Bristol-Myers Squibb Company, priority 2001, dated 2004).
